Test results published in patent US10829488B2, “N-(phenylsulfonyl)benzamides and related compounds as bcl-2 inhibitors” (THE REGENTS OF THE UNIVERSITY OF MICHIGAN, priority 2016, dated 2020).
Read-outs that look alike come from different tables or passages of the source.

Tests used:
[1] = Pharmacokinetics in rats; settings: rat, in vivo
Protocol: The pharmacokinetics of ABT-199 and representative Compounds of the Disclosure were evaluated in rats at an IV dose of 2 mg/kg and an oral dose of 20 mg/kg.

[2] = Mouse weight in RS4;11 leukemia xenograft model; type: in vivo; settings: nude mice, oral gavage, FIG. 4
Protocol: (§1) The antitumor activity of Cpd. No. 6 (compound 6) was also studied in the RS4;11 leukemia xenograft model. Human RS4;11 tumor cells were injected into nude mice and treatment started on day 11 when the tumor size reached approximately 100 mm^3. Cpd. No. 6 was administered via oral gavage at indicated doses and schedules. Cpd.

[3] = test system: RS4;11 leukemia xenograft; assay: Antitumor activity in RS4;11 leukemia xenograft model; type: in vivo; settings: nude mice, oral gavage, treatment started day 11, FIG. 3
Protocol: as §1

[4] = IV 2 mg/kg, read-out: AUC0-∞ (ng · h/mL) IV
[5] = oral 20 mg/kg, read-out: AUC0-∞ (ng · h/mL) PO

Row | AUC(0-inf) [1, 4] | AUC(0-inf) [1, 5] | Structure (SMILES) | Mouse weight [2] | Antitumor activity (tumor growth) [3]
1 | 5450 ng·h/mL | 20800 ng·h/mL | CC1(C)CCC(CN2CCN(c3ccc(C(=O)NS(=O)(=O)c4ccc(NCC5CCOCC5)c([N+](=O)[O-])c4)c(Oc4cnc5[nH]ccc5c4)c3)CC2)=C(c2ccc(Cl)cc2)C1 [ABT-199, Venetoclax, reference compound] |  | 
2 | 2680 ng·h/mL | 7780 ng·h/mL | O=C(NS(=O)(=O)c1ccc(NCC2CCOCC2)c([N+](=O)[O-])c1)c1ccc(N2CCN(CC3=C(c4ccc(Cl)cc4)CC4(CCC4)CC3)CC2)cc1Oc1cnc2[nH]ccc2c1 [Cpd. No. 3, 2-((1H-pyrrolo[2,3-b]pyridin-5-yl)oxy)-4-(4-((6-(4-chlorophenyl)spiro[3.5]non-6-en-7-yl)methyl)piperazin-1-yl)-N-((3-nitro-4-(((tetrahydro-2H-pyran-4-yl)methyl)amino)phenyl)sulfonyl)benzamide] |  | 

Row | Structure (SMILES) | AUC(0-inf) [1, 4] | AUC(0-inf) [1, 5] | Mouse weight [2] | Antitumor activity (tumor growth) [3]
3 | O=C(NS(=O)(=O)c1ccc(NC[C@H]2COCCO2)c([N+](=O)[O-])c1)c1ccc(N2CCN(CC3=C(c4ccc(Cl)cc4)CC4(CCC4)CC3)CC2)cc1Oc1cnc2[nH]ccc2c1 [Cpd. No. 6, (S)-N-((4-(((1,4-dioxan-2-yl)methyl)amino)-3-nitrophenyl)sulfonyl)-2-((1H-pyrrolo[2,3-b]pyridin-5-yl)oxy)-4-(4-((6-(4-chlorophenyl)spiro[3.5]non-6-en-7-yl)methyl)piperazin-1-yl)benzamide] | 2920 ng·h/mL | 13500 ng·h/mL | does not cause weight loss | inhibits tumor growth
